Key:
WM-266-4 cells = experiment: Cell Proliferation Inhibitory Test; assay type: cell-based; conditions: Homo sapiens, 72 h, cultured three days with test compound, MTT, read-out: 50% cell proliferation inhibitory activity (GI50 value)
Procedure: WM-266-4 cells (ATCC, USA) were seeded in a 96-well plate and cultured overnight. Then, serial dilutions of the sample containing the test compound were prepared, added to each well and cultured another three days. Thereafter, the cell amount in each well was measured by MTT (MOSMANN, T., Rapid colorimetric assay for cellular growth and survival: application to proliferation and cytotoxicity assays. J. Immunol. Methods, 65, 55-63 (1983)). The 50% cell proliferation inhibitory activity (GI50 value) was calculated from the following formula (3). 100×[(T−T0)/(C−T0)]=50 (3)
Here, T represents values from the test compound added wells, C represents the value from the well to which the test compound was not added for three days, and To represents an initial measured value at the time of addition of the test compound.

human mTOR = biological target: T1, human mTOR (Homo sapiens, UniProt P42345); experiment: mTOR Kinase Activity Inhibition Test; assay type: biochemical; conditions: His-tagged mTOR (1362C), biotinylated peptide substrate, ATP, 3 hours at room temperature, fluorescence resonance energy transfer 665 nm/620 nm; read-out: IC50 value of mTOR enzyme inhibitory activity
T1 construct: the portion corresponding to 1362-2549aa at the C terminus of human mTOR; made in house
T1 sequence (P42345 1362-2549): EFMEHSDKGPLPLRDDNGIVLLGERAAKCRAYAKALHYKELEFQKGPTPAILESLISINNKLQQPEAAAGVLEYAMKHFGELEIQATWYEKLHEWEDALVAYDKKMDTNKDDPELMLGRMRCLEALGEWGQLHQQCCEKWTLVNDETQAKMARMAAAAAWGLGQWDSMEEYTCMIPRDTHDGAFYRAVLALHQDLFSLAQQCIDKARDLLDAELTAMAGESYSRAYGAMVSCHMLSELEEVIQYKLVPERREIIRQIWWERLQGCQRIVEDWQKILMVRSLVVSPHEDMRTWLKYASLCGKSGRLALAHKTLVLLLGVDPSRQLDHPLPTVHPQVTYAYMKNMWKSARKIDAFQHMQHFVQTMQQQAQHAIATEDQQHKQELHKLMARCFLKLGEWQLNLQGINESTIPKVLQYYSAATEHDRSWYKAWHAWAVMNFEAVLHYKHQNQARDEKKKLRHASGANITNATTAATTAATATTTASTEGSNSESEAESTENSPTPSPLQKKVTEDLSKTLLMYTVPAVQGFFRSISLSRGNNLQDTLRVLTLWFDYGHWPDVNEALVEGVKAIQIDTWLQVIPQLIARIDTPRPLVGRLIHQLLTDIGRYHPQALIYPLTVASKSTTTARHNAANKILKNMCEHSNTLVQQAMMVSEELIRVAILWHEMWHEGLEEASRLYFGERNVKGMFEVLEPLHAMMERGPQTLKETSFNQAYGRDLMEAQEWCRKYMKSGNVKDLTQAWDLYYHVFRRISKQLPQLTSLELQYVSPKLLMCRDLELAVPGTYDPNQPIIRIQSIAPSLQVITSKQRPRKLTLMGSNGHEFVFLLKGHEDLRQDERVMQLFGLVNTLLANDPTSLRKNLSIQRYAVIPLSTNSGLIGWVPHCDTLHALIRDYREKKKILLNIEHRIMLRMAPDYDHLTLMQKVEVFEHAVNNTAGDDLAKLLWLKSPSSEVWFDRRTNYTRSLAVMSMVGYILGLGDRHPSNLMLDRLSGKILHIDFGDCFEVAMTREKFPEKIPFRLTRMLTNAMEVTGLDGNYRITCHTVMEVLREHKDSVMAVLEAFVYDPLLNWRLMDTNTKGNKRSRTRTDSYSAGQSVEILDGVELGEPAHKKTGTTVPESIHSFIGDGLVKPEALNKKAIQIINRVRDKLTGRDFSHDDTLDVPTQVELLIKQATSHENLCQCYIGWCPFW
Procedure: The kinase activity of mTOR was measured in the presence or absence of a test compound. A substrate peptide is phosphorylated by mTOR kinase activity. A complex of streptavidin-XL665 and anti-phosphorylated S6K (Thr389) antibody/anti-mouse IgG-cryptate binds to this phosphorylated peptide. At this moment, fluorescence resonance energy transfer takes place from antibody/anti-mouse IgG-cryptate exposed to light excitation to XL665, which results in emission of fluorescence at 665 nm. The mTOR kinase activity is detected using this principle.
(1) Sample Preparation and Enzymatic Reaction
An HEK293 cell line that constitutively expresses a His tag fused human mTOR has been established. His tag was introduced into the N terminus of the portion corresponding to 1362-2549aa at the C terminus of human mTOR. Cell lysate was prepared from this HEK293 cell line constitutively expressing His-tagged mTOR (1362C), and His-tagged mTOR (1362C) was purified using the His tag affinity according to a conventional method.
Next, an mTOR enzyme solution was prepared, which contains the aforementioned His-tagged mTOR (1362C) enzyme, 8 μg/mL of biotinylated peptide (Biotin-Ahx-[…]-amide (Sigma)), as well as 50 mM HEPES (pH 7.5), 20 mM MnCl2, 1 mg/ml BSA, an appropriate amount of protease inhibitor cocktail (Complete EDTA free, Roche), 100 ng/ml Calyculin A, 4 μg/ml Cantharidin and 10 mM DTT as other components.
The test compound was dissolved in DMSO, and serial dilutions were prepared with 20 μM ATP solution (50 mM HEPES (pH 7.5), 20 μM ATP) to achieve concentrations necessary for the assay. 5 μL of this compound solution was applied to each well of a 384 well small volume white Greiner plate.
5 μL of mTOR enzyme solution was added to the aforementioned well containing the test compound. After mixing, the mixture was incubated at room temperature for 3 hours to carry out the enzymatic reaction.
The same operation was performed with a solution of DMSO in 20 μM ATP solution as a positive control and with a solution of DMSO in 50 mM HEPES (pH 7.5) as a negative control.
(2) Detection of Enzymatic Reaction
After the enzymatic reaction, 5 μl each of an europium solution (a solution of anti-mouse IgG-cryptate (SCETI Medical Labo K.K.) and anti-phosphorylated S6K (Thr389) antibody (Cell Signaling Technology Inc.) in 50 mM HEPES (pH 7.5), 100 mM EDTA and 1.5 mg/ml BSA) and an XL665 solution (a solution of streptavidin-XL665 (SCETI Medical Labo K.K.) in 50 mM HEPES (pH 7.5), 100 mM EDTA, 0.8 M KF and 1.5 mg/ml BSA) were added in this order and then mixed. The mixture was incubated at 4° C. overnight. On the following day, the mixture was returned to room temperature and irradiated with excitation light at 337 nm. Fluorescence at 620 nm and fluorescence at 665 nm were measured with RUBYstar (BMG).
The mTOR inhibitory activity (%) was calculated using the ratio calculated from the measured values as an index of enzyme activity. Here, the ratio was calculated from the following formula (I). Ratio=10000×665 nm fluorescence value/620 nm fluorescence value (1)
The mTOR enzyme inhibitory activity (%) was calculated from the following formula (2). mTOR enzyme inhibitory activity (%)=100×[(P−S)/(P−N)] (2)
P: Ratio in well of positive control
N: Ratio in well of negative control
S: Ratio in well containing test compound
Further, an optimal curve was calculated based upon each concentration of the test compound prepared in serial dilutions and the mTOR enzyme inhibitory activity (%) at that concentration. The concentration at which 50% inhibition occurred was calculated as the IC50 value of mTOR enzyme inhibitory activity.

| IC50 (human mTOR) [nM] | SMILES | GI50 (WM-266-4 cells) [nM] |
| --- | --- | --- |
| < 50 | CC1(C)CC(Cn2c(=O)[nH]c3ncc(-c4cnc5[nH]ccc5c4)cc32)CCO1 (racemic) [Example 70, 1-[(2,2-Dimethyltetrahydro-2H-pyran-4-yl)methyl]-6-(1H-pyrrolo[2,3-b]pyridin-5-yl)-1,3-dihydro-2H-imidazo[4,5-b]pyridin-2-one] | < 3000 |
| < 50 | CO[C@@H]1CCC[C@@H](Cn2c(=O)[nH]c3ncc(-c4cnc5[nH]ccc5c4)cc32)C1 (racemic) [Example 104, 1-{[trans-3-Methoxycyclohexyl]methyl}-6-(1H-pyrrolo[2,3-b]pyridin-5-yl)-1,3-dihydro-2H-imidazo[4,5-b]pyridin-2-one] | < 3000 |
| < 50 | CO[C@H]1CCC[C@@H](Cn2c(=O)[nH]c3ncc(-c4cnc5[nH]ccc5c4)cc32)C1 (racemic) [Example 105, 1-{[cis-3-Methoxycyclohexyl]methyl}-6-(1H-pyrrolo[2,3-b]pyridin-5-yl)-1,3-dihydro-2H-imidazo[4,5-b]pyridin-2-one] | < 3000 |
| < 50 | O=c1[nH]c2ncc(-c3cnc4[nH]ccc4c3)cc2n1C[C@H]1CC[C@H](O)CO1 (racemic) [Example 111, 2,6-Anhydro-1,3,4-trideoxy-1-[2-oxo-6-(1H-pyrrolo[2,3-b]pyridin-5-yl)-2,3-dihydro-1H-imidazo[4,5-b]pyridin-1-yl]-DL-erythro-hexitol] | < 3000 |
| < 50 | O=c1[nH]c2ncc(-c3cnc4[nH]ccc4c3)cc2n1C[C@H]1CC[C@@H](O)CO1 (racemic) [Example 112, 2,6-Anhydro-1,3,4-trideoxy-1-[2-oxo-6-(1H-pyrrolo[2,3-b]pyridin-5-yl)-2,3-dihydro-1H-imidazo[4,5-b]pyridin-1-yl]-DL-threo-hexitol] | < 3000 |
| < 50 | CO[C@@H]1CC[C@H](Cn2c(=O)[nH]c3ncc(-c4cnc5[nH]ccc5c4)cc32)OC1 (racemic) [Example 113, 2,6-Anhydro-1,3,4-trideoxy-5-O-methyl-1-[2-oxo-6-(1H-pyrrolo[2,3-b]pyridin-5-yl)-2,3-dihydro-1H-imidazo[4,5-b]pyridin-1-yl]-DL-threo-hexitol] | < 3000 |
| < 50 | CO[C@H]1CCO[C@@H](Cn2c(=O)[nH]c3ncc(-c4cnc5[nH]ccc5c4)cc32)C1 (racemic) [Example 114, 2,6-Anhydro-1,3,5-trideoxy-4-O-methyl-1-[2-oxo-6-(1H-pyrrolo[2,3-b]pyridin-5-yl)-2,3-dihydro-1H-imidazo[4,5-b]pyridin-1-yl]-DL-threo-hexitol] | < 3000 |
| < 50 | Cc1c(-c2cnc3[nH]c(=O)n(C[C@H]4CC[C@@H](O)CO4)c3c2)cnc2[nH]ccc12 (racemic) [Example 141, 2,6-Anhydro-1,3,4-trideoxy-1-[6-(4-methyl-1H-pyrrolo[2,3-b]pyridin-5-yl)-2-oxo-2,3-dihydro-1H-imidazo[4,5-b]pyridin-1-yl]-DL-threo-hexitol] | < 3000 |
| < 50 | CO[C@@H]1CC[C@H](Cn2c(=O)[nH]c3ncc(-c4cnc5[nH]ccc5c4C)cc32)OC1 (racemic) [Example 142, 2,6-Anhydro-1,3,4-trideoxy-5-O-methyl-1-[6-(4-methyl-1H-pyrrolo[2,3-b]pyridin-5-yl)-2-oxo-2,3-dihydro-1H-imidazo[4,5-b]pyridin-1-yl]-DL-threo-hexitol] | < 3000 |
| < 50 | O=c1[nH]c2ncc(-c3ccc4[nH]ccc4c3)cc2n1CC1CC1 [Example 1, 1-(Cyclopropylmethyl)-6-(1H-indol-5-yl)-1,3-dihydro-2H-imidazo[4,5-b]pyridin-2-one] | < 3000 |
| 100 to 5000 | O=c1[nH]c2ncc(-c3ccc4[nH]ccc4c3)cc2n1C1CCOCC1 [Example 2, 6-(1H-Indol-5-yl)-1-(tetrahydro-2H-pyran-4-yl)-1,3-dihydro-2H-imidazo[4,5-b]pyridin-2-one] | < 3000 |
| < 50 | O=c1[nH]c2ncc(-c3ccc4[nH]ccc4c3)cc2n1CCC1CCOCC1 [Example 3, 6-(1H-Indol-5-yl)-1-[2-(tetrahydro-2H-pyran-4-yl)ethyl]-1,3-dihydro-2H-imidazo[4,5-b]pyridin-2-one] | < 3000 |
| < 50 | O=c1[nH]c2ncc(-c3ccc4[nH]ccc4c3)cc2n1CC1CCOCC1 [Example 4, 6-(1H-Indol-5-yl)-1-(tetrahydro-2H-pyran-4-ylmethyl)-1,3-dihydro-2H-imidazo[4,5-b]pyridin-2-one] | < 3000 |
| < 50 | O=c1[nH]c2ncc(-c3cnc4ccccc4c3)cc2n1CC1CCOCC1 [Example 5, 6-Quinolin-3-yl-1-(tetrahydro-2H-pyran-4-ylmethyl)-1,3-dihydro-2H-imidazo[4,5-b]pyridin-2-one] | < 3000 |
| < 50 | O=c1[nH]c2ncc(-c3ccc4[nH]ccc4c3)cc2n1CC1CCCCC1 [Example 6, 1-(Cyclohexylmethyl)-6-(1H-indol-5-yl)-1,3-dihydro-2H-imidazo[4,5-b]pyridin-2-one] | < 3000 |
| < 50 | Cc1nc2[nH]c(=O)n(CC3CCOCC3)c2cc1-c1ccc2[nH]ccc2c1 [Example 7, 6-(1H-Indol-5-yl)-5-methyl-1-(tetrahydro-2H-pyran-4-ylmethyl)-1,3-dihydro-2H-imidazo[4,5-b]pyridin-2-one] | < 3000 |
| 100 to 5000 | Cc1c(-c2ccc3[nH]ccc3c2)cnc2[nH]c(=O)n(CC3CCOCC3)c12 [Example 8, 6-(1H-Indol-5-yl)-7-methyl-1-(tetrahydro-2H-pyran-4-ylmethyl)-1,3-dihydro-2H-imidazo[4,5-b]pyridin-2-one] | 3000 to 25000 |
| < 50 | CS(=O)(=O)N1CCC(Cn2c(=O)[nH]c3ncc(-c4ccc5[nH]ccc5c4)cc32)CC1 [Example 9, 6-(1H-Indol-5-yl)-1-{[1-(methanesulfonyl)piperidin-4-yl]methyl}-1,3-dihydro-2H-imidazo[4,5-b]pyridin-2-one] | < 3000 |
| < 50 | O=c1[nH]c2ncc(-c3ccc4ncccc4c3)cc2n1CC1CCOCC1 [Example 10, 6-Quinolin-6-yl-1-(tetrahydro-2H-pyran-4-ylmethyl)-1,3-dihydro-2H-imidazo[4,5-b]pyridin-2-one] | 3000 to 25000 |
| 100 to 5000 | O=c1[nH]c2ncc(-c3ccc4[nH]ncc4c3)cc2n1CC1CCOCC1 [Example 14, 6-(1H-Indazol-5-yl)-1-(tetrahydro-2H-pyran-4-ylmethyl)-1,3-dihydro-2H-imidazo[4,5-b]pyridin-2-one] | 3000 to 25000 |
| < 50 | O=c1[nH]c2ncc(-c3cnc4[nH]ccc4c3)cc2n1CC1CCOCC1 [Example 15, 6-(1H-Pyrrolo[2,3-b]pyridin-5-yl)-1-(tetrahydro-2H-pyran-4-ylmethyl)-1,3-dihydro-2H-imidazo[4,5-b]pyridin-2-one] | < 3000 |

Source: patent US8436012B2, “Imidazopyridin-2-one derivatives” (Daiichi Sankyo Company, Limited, priority 2008, dated 2013)
